Measured values reported in US6326471A, “Immunogenic peptides of prostate specific antigen” (priority 1998, dated 2001).

Experiments:
[1] = system: antibody to the alpha subunit of the acetylcholine receptor; conditions: without added hydrophobic LI or AI residues; cited from earlier work
anti-whole PSA antibody = test: ELISA activity of PSA peptide segments with anti-whole PSA antibody; type: binding; conditions: average of "wet" and "dry" ELISA methods; rank 1 = most reactive of 14 peptides
From the text: The amino acid sequence of PSA was divided into fourteen peptide segments. Thirteen of the peptides were 19-mers to 21-mers and one peptide was a 16-mer. […] Two of the peptides lacked both the proline and the hydrophobic-hydrophilic-hydrophobic region descriptors. The combined presence of the two descriptors correlated extremely well with the immunodominance of PSA peptide segments. The six highest scoring PSA peptides in terms of ELISA activity with anti-whole PSA antibody had both characteristics as did the eighth best. Also, the presence of a central proline in a segment lacking the adjacent hydrophobic, hydrophilic, and hydrophobic region characteristic successfully predicted four of five subdominant (moderately ELISA reactive) epitopes, while the absence of both the proline and the hydrophobic-hydrophilic-hydrophobic region characteristics in a peptide segment correctly predicted the two least ELISA reactive peptide segments.

| Substance | antibody binding of the peptide alone [1] | ELISA activity rank (anti-whole PSA antibody) |
| --- | --- | --- |
| NPDVK | could not bind antibody alone |  |
| YSTCSGDSGGPLVCNGVLQG [PSA peptide 186-204] |  | 11 |
